Data on four compounds can be found in PMC6298744 (Biochemical pharmacology, 2018).

Data set [1] addresses T1, hNET (Homo sapiens, UniProt P23975). The following applies: read-out: affinity of [^125I]RTI-55 binding sites, NET; HEK-hNET; cited from earlier work.
The target of data set [2] is T2, hDAT (Homo sapiens, UniProt Q01959). The following applies: read-out: affinity of [^125I]RTI-55 binding sites, DAT; HEK-hDAT; cited from earlier work.
The nature of data set [3]: Human blood concentrations after ingestion. The following applies: converted from cited ng/ml values.
The conditions of data set [4]: cited from earlier work.
In data set [5] the target is T3, 5-HT2C receptor (Homo sapiens, UniProt P28335).
T3 sequence (P28335 33-458): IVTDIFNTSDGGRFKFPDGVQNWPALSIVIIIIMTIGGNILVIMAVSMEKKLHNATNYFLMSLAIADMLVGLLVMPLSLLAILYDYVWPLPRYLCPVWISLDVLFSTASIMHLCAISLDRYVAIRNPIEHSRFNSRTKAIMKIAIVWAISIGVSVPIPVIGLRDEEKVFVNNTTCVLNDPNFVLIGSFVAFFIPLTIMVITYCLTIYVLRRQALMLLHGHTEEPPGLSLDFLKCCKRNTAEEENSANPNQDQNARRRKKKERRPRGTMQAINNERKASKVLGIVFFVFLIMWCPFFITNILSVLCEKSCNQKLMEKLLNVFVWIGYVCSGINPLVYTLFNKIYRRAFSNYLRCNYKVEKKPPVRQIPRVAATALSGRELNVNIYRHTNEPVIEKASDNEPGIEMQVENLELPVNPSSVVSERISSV
The following applies: read-out: affinity of [^125I]DOI binding sites, h5-HT2C; HEK-5-HT2C; radioligand affinity.

Data set [6] concerns the target T4, hSERT (Homo sapiens, UniProt P31645). Nature of the data set: Inhibition of [^3H]5-HT uptake by HEK-hSERT cells. It is filed as cell-based.
In data set [7] the target is T2, hDAT. In words: Inhibition of [^125I]RTI-55 binding to hDAT.
Data set [8] concerns the target T5, 5-HT2A receptor (Homo sapiens, UniProt P28223). Nature of the data set: biochemical. The data set is classed as binding.
Data set [9] concerns the target T6, human 5-HT1A receptor (Homo sapiens, UniProt P08908).
T6 sequence (P08908 1-422): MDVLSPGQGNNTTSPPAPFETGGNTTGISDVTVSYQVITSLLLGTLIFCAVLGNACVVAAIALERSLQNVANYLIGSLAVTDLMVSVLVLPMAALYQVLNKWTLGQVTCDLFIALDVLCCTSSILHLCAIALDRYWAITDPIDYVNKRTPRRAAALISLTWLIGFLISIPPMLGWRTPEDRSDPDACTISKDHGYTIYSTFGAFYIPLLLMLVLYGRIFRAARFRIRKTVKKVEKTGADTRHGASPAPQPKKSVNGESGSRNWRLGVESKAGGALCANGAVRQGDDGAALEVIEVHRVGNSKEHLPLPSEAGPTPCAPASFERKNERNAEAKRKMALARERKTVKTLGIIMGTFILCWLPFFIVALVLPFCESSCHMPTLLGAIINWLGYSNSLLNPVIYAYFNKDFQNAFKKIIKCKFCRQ
In words: 5-HT1A receptor [^35S]GTPγS binding stimulation. The data set is classed as biochemical. (In general: Binding of GTPγS marks nucleotide exchange on a G protein.)

The target of data set [10] is T1, hNET. Nature of the data set: biochemical. The data set is classed as binding.
The conditions of data set [11]: taken hours after ingestion; cited from earlier work.
Data set [12] addresses T2, hDAT. In words: Release of preloaded [^3H]DA from HEK-hDAT cells. The data set is classed as cell-based.
The target in data set [13] is T1, hNET. In words: cell-based.
Data set [14] deals with T3, 5-HT2C receptor. Nature of the data set: cell-based.
For data set [15], the target named is T7, 5-HT2B receptor (Homo sapiens, UniProt P41595). Nature of the data set: 5-HT2B receptor inositol monophosphate. It is filed as cell-based.
Data set [16] concerns the target T1, hNET. Nature of the data set: Release of preloaded [^3H]NE from HEK-hNET cells. It is filed as cell-based.
The target of data set [17] is T7, 5-HT2B receptor. In words: 5-HT2B receptor [^3H]5-HT binding.
Data set [18] has as its target T4, hSERT. In words: Inhibition of [^125I]RTI-55 binding to hSERT.
Data set [19] concerns the target T5, 5-HT2A receptor. Nature of the data set: cell-based. The data set is classed as cell-based.
Data set [20] deals with T2, hDAT. Nature of the data set: Inhibition of [^3H]DA uptake by HEK-hDAT cells. The data set is classed as cell-based.
In data set [21] the target is T4, hSERT. Nature of the data set: Release of preloaded [^3H]5-HT from HEK-hSERT cells. It is filed as cell-based.

Bounds are passed on as bounds.

T2 sequence (Q01959 whole entry): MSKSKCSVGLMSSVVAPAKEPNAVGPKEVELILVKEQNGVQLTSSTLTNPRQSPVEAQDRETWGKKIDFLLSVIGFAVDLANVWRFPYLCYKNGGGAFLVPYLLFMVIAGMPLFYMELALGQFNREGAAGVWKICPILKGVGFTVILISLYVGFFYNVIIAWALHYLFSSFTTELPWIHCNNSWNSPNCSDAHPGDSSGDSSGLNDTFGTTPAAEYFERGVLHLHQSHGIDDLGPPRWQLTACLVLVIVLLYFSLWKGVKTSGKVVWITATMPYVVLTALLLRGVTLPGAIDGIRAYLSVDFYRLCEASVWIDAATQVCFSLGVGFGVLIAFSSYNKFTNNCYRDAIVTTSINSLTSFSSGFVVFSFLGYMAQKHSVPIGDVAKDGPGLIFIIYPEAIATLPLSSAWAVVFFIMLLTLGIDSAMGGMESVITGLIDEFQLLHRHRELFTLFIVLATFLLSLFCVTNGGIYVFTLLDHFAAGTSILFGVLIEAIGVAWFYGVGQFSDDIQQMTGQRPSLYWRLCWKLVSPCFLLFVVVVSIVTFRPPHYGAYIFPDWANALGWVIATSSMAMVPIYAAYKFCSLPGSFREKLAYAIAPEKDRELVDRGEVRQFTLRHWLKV
T1 sequence (P23975 whole entry): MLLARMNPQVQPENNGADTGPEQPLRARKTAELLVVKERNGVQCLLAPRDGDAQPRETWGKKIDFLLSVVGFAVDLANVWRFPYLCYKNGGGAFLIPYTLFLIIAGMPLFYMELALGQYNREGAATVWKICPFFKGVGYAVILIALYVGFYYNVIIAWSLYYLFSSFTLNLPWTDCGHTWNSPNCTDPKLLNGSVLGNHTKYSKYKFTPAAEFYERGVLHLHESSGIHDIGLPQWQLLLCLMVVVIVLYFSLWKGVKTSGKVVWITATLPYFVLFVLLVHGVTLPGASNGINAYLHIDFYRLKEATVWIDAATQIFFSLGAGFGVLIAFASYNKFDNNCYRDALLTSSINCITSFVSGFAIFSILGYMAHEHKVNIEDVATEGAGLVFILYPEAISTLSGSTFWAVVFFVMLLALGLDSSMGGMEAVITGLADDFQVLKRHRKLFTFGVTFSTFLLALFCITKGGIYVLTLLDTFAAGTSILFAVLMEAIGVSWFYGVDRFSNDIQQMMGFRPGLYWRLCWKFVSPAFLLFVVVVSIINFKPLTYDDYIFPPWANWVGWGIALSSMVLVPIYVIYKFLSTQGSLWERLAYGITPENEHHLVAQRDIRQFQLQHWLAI
T7 sequence (P41595 whole entry): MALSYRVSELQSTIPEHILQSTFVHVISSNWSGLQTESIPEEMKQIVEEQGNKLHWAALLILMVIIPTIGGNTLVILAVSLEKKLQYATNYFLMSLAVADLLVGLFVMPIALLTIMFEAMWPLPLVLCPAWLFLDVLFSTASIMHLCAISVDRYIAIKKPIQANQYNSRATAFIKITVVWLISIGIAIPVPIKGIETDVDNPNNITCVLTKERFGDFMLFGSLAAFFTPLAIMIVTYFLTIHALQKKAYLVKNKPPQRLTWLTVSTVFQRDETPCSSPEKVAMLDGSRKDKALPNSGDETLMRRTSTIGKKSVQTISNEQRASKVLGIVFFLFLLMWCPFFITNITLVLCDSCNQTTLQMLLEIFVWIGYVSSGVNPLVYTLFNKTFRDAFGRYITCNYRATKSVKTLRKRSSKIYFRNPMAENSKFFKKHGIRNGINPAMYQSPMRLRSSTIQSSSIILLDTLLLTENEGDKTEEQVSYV
T4 sequence (P31645 whole entry): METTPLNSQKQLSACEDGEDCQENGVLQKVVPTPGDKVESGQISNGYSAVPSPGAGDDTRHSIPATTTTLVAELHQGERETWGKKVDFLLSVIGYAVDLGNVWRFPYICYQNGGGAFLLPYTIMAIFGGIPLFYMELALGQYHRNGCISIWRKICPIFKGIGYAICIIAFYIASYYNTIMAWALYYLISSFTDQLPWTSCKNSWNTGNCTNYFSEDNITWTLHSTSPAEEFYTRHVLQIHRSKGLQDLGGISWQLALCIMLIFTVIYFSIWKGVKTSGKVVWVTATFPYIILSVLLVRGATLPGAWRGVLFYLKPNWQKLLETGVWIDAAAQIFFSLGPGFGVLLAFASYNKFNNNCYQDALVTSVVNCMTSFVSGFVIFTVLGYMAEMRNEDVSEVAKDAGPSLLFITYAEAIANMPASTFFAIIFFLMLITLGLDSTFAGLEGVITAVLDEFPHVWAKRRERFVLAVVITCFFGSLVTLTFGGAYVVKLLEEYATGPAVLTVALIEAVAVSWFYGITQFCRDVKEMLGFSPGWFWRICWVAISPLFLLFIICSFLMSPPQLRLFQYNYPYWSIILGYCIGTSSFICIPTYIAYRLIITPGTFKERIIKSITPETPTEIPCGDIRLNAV
T5 sequence (P28223 whole entry): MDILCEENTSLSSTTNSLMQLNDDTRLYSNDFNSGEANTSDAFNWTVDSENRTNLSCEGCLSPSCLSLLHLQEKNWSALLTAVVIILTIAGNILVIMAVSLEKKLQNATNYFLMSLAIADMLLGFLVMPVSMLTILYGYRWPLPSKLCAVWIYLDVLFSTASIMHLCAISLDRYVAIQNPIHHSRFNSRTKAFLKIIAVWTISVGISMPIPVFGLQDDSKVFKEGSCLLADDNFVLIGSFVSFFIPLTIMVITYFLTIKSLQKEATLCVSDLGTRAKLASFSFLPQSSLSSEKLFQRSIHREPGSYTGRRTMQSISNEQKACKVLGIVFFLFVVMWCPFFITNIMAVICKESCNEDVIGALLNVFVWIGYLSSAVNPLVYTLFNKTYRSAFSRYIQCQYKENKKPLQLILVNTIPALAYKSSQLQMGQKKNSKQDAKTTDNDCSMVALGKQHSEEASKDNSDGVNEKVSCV

Turning to `COC(=O)[C@H]1[C@@H](c2ccc(I)cc2)CC2CC[C@H]1N2C` [[^125I]RTI-55, [^125I]methyl (1R,2S,3S)-3-(4-iodophenyl)-8-methyl-8-azabicyclo[3.2.1]octane-2-carboxylate], the Kd in data set [1] is 12.1 nM; in data set [2] it was 1.83 nM.

As to `COc1cc(CCNCc2ccccc2OC)c(OC)cc1I` [25I-NBOMe], the “blood concentration (molar)” value in [3] is ~ 8 nM. Moreover, in [4], the “Postmortem brain tissue concentration” value was 2.54 ng/g and the “Postmortem peripheral blood concentration” value is 0.405 ng/mL.

Turning to `COc1cc(CC(C)N)c(OC)cc1I` (stereo not drawn) [[^125I]DOI, [^125I]2,5-dimethoxy-4-iodoamphetamine], in [5], the Kd is 4.18 nM.

Consider `COc1ccc(OC)c(CCNCc2ccccc2OC)c1` [25H-NBOMe, 2-(2,5-dimethoxyphenyl)-N-(2-methoxybenzyl)ethanamine], for which the values for the IC50 in data set [6], in [13] and in data set [20] were 2080 ± 310 nM, 3650 ± 880 nM and > 100000 nM, respectively. Further, the “blood concentration (molar)” value in [3] was ~ 0.9 nM. The Ki in [7] turned out to be 81400 ± 8900 nM; in [8], 4.9 ± 1.3 nM; in data set [10], 16300 ± 2600 nM; in data set [17], 62.9 ± 7.5 nM; in data set [18], 2220 ± 340 nM. Moreover, the “Selectivity (binding ratios) 5-HT2A : 5-HT1A” value in data set [8] (ratio of Ki values) is recorded as 920. Besides, in [8] (ratio of Ki values), the “Selectivity (binding ratios) 5-HT2A : 5-HT2B” value was determined as 13. Moreover, the “Selectivity (binding ratios) 5-HT2A : 5-HT2C” value in [8] (ratio of Ki values) is 3.3. Further, the concentration for a half-maximal effect (EC50) is 28400 ± 8600 nM in [9]; > 100000 nM in data set [12]; 13.8 ± 2.6 nM in data set [14]; 463 ± 71 nM in data set [15]; > 66000 nM in [16]; 40.7 ± 8.1 nM in data set [19] (EC50, 5-HT2A stimulation of IP-1 formation, mean ± sem). For the same compound, the EC50 in [21] is > 100000 nM. The Emax in data set [9] (read-out: % maximum stimulation, 5-HT1A stimulation of [^35S]GTPγS binding) is 52%; in data set [14] (read-out: % maximum stimulation, 5-HT2C stimulation of IP-1 formation) it was 95.5%; in data set [15] (read-out: % maximum stimulation, 5-HT2B stimulation of IP-1 formation), 37.7%; in data set [19] (read-out: % maximum stimulation, 5-HT2A stimulation of IP-1 formation), 85.9%. Also, the Human blood concentration in data set [11] is 0.29 ng/mL. Moreover, the “% maximum release, hDAT [^3H]DA” value in data set [12] (relative to maximum release induced by METH (1–10 μM)) was −0.18 ± 0.26%. Also, in [16] (relative to maximum release induced by METH (0.3–1 μM)), the “% maximum release, hNET [^3H]NE” value came out at 21 ± 12%. Further, the “Selectivity (functional ratios) 5-HT2A: 5-HT1A” value in data set [19] (ratio of EC50 values) is 700. For the same compound, the “Selectivity (functional ratios) 5-HT2A: 5-HT2B” value in data set [19] (ratio of EC50 values) is 11. Also, the “Selectivity (functional ratios) 5-HT2A: 5-HT2C” value in data set [19] (ratio of EC50 values) worked out at 0.34. Further, the “% maximum release, hSERT [^3H]5-HT” value in [21] (relative to maximum release induced by METH (0.3–1 mM)) is on record as −0.27 ± 0.49%.

By IC50 is commonly meant the concentration needed to halve the response being measured. Read a low IC50 as greater potency in that assay. Broadly, the Ki is the equilibrium dissociation constant of an inhibitor or competing ligand from its target. A lower Ki goes with tighter binding. Usually EC50 stands for the concentration at which the effect is half-maximal.
